Laboratory results reported in publication PMC9503112, “Synthesis, Molecular Docking, In Vitro and In Vivo Studies of Novel Dimorpholinoquinazoline-Based Potential Inhibitors of PI3K/Akt/mTOR Pathway” (International Journal of Molecular Sciences, 2022).
Entries after “also recorded” stand apart in the source; their conditions may differ.

Experiments:
[1] = test system: MCF7; assay: Antiproliferative activity, MTT assay; type: cell-based; details: Homo sapiens, 72 h, standard deviations within 50%
Experimental: (§1) Human breast cancer MCF7, MDA-MB-231, SkBr-3 (purchased from the ATCC collection), human keratinocytes HaCaT, murine fibroblasts L929 and macrophages J774 cells (Collection of Shemyakin-Ovchinnikov Institute of Bioorganic Chemistry RAS) were cultured in standard DMEM or RPMI-1640 medium (ThermoScientific, Waltham, MA, USA) supplemented with 10% fetal bovine serum (FBS, Cytiva, Marlborough, MA, USA) at 37 °C, 5 % CO2 and 80–85% humidity (NuAir CO2 incubator). The cell growth was evaluated by MTT (3-[4,5-dimethylthiazol-2-yl]-2,5-diphenyltetrazolium bromide) test. Cells were seeded at a density of 5 × 10^3 cells per well in 96-well flat-bottomed plates (TPP). The compounds were dissolved in DMSO (AppliChem) to 10 mM before the experiments, and then the resulting solutions were diluted by the medium to the required concentrations. Solutions of the tested compounds with different concentrations in 100 μL of the medium were added and the cells were grown for 72 h. MTT (10 μL/well, 5 mg/mL) was added for the final 3 h. The formazan purple crystals were dissolved in DMSO (100 μL per well). The absorbance of solutions was measured at 540 nm with a MultiScan reader (ThermoFisher). Results were analyzed by Excel package (Microsoft). The inhibition of proliferation (inhibitory index) was calculated as [1–(ODexperiment/ODcontrol)], where OD was MTT optical density. IC50 (Table 1) was determined as the concentration giving 50% of inhibition in the comparison with it […].

[2] = test system: keratinocytes HaCaT; assay: Antiproliferative activity, MTT assay; type: cell-based; details: Homo sapiens, 72 h, standard deviations within 50%
Experimental: as §1

[3] = test system: colorectal murine tumor Colon26; assay: In vivo tumor growth; design: species or system BALB/c mice
Experimental: Murine colorectal CT26 (ATCC, CRL-2639) adenocarcinoma tumor cell line was used in the study. Cells were grown in RPMI-1640 supplemented with 10% fetal calf serum (FCS) and pen-strep-glut (all from PanEco, Moscow, Russian Federation). Cells were passaged by trypsinization using Trypsin/EDTA solution (PanEco, Moscow, Russian Federation) twice a week. Cell authentication was not performed by the authors.
Six- to eight-week-old female BALB/c mice were obtained from the Pushchino branch of Shemyakin-Ovchinnikov Institute of Bioorganic Chemistry RAS. All studies were conducted in an AAALAC accredited facility in compliance with the PHS Guidelines for the Care and Use of Animals in Research, protocol #325 from 24.05.2021
Colon-26 cells (10^5) were subcutaneously (s.c.) injected into the depilated flanks of 6-week-old female BALB/c mice. Mice (n = 20) were divided in three groups: control mice (n = 8) were injected with vehicle only; mice from group 1 (n = 6) and 2 (n = 6) were treated with 50 µL of 1 mM 7c injected s.c. near the tumors. […] The perpendicular diameter of each tumor was measured twice a week, and tumor volume was calculated using the following formula: tumor volume (mm^3) = a × b^2 × 0.5, where a represents the longest diameter, b represents the shortest diameter, and 0.5 is a constant used to calculate the volume of an ellipsoid. […]

[4] = test system: PARP1 in MCF7 cells; assay: Immunoblotting of PARP1 cleavage; type: cell-based, human
Experimental: MCF7 cells were seeded onto 100 mm dishes (Corning) and cultivated for 24 h. Compound 7c was added at different concentrations while the reference compound wortmannin (Selleckchem, Houston, TX, USA) was used at 500 nM. The cells were harvested after 72 h of growth with the compounds. To prepare cell extracts, MCF7 cells were twice washed in phosphate buffer and incubated for 10 min on ice in the modified lysis buffer containing 50 mM Tris-HCl, pH 7.5, 0.5% Igepal CA-630, 150 mM NaCl, 1 mM EDTA, 1 mM DTT, 1 mM PMSF, 0.1 mM sodium orthovanadate and aprotinin, leupeptin, pepstatin (1 µg/mL each). The protein content was determined by the Bradford method. Cell lysates were separated in 10% SDS-PAGE under reducing conditions, transferred to a nitrocellulose membrane (GE HealthCare, Chicago, IL, USA), and processed according to a standard protocol. To prevent nonspecific absorption, the membranes were treated with 5% nonfat milk solution in TBS buffer (20 mM Tris, 500 mM NaCl, pH 7.5) with 0.1% Tween-20 and then incubated with primary antibodies (Cell Signaling Technology, Danvers, MA, USA) overnight at 4 °C. […] Signals were detected using the ECL reagent using the ImageQuant LAS4000 system (GE HealthCare, Chicago, IL, USA).
The signals of phospho-proteins to total ones were calculated using the ImageJ program from inverted images of the bands.

[5] = test system: fibroblasts L929; assay: Antiproliferative activity, MTT assay; type: cell-based, murine; details: Mus musculus, 72 h, standard deviations within 50%
Experimental: as §1

[6] = test system: MCF7 cells; assay: MCF7 proliferation with 7c in combination with metformin; type: cell-based, human; details: 7c combined with metformin; printed as up to 4 nM
Description: Hyperglycemia is one of the most frequent side effects of pan- and isoform-selective PI3K inhibitors. Drug-induced inhibition of PI3K reduces glucose uptake that stimulates insulin secretion. Long-term therapy with PI3K inhibitors can cause insulin resistance. […] We have previously analyzed the antiproliferative potency of metformin (MF) against MCF7 breast cancer cells. Metformin induced a partial restoration of the cancer cell sensitivity to hormonal and target drugs. MF caused 50% suppression of MCF7 cell growth at a concentration of 5.8 mM [54]. Based on this fact, MF at the concentrations that had no significant antiproliferative effect was used in the combination with the lead compound. […]
Human breast cancer MCF7, MDA-MB-231, SkBr-3 (purchased from the ATCC collection), human keratinocytes HaCaT, murine fibroblasts L929 and macrophages J774 cells (Collection of Shemyakin-Ovchinnikov Institute of Bioorganic Chemistry RAS) were cultured in standard DMEM or RPMI-1640 medium (ThermoScientific, Waltham, MA, USA) supplemented with 10% fetal bovine serum (FBS, Cytiva, Marlborough, MA, USA) at 37 °C, 5 % CO2 and 80–85% humidity (NuAir CO2 incubator). The cell growth was evaluated by MTT (3-[4,5-dimethylthiazol-2-yl]-2,5-diphenyltetrazolium bromide) test. […] The absorbance of solutions was measured at 540 nm with a MultiScan reader (ThermoFisher). […]

[7] = test system: SkBr-3 cells; assay: Cell cycle analysis (PI-stained DNA, flow cytometry); type: cell-based, human
Experimental: The cell cycle was analyzed using PI-stained DNA. Cells from the compounds 7 treated cultures were collected at 24, 48, and 72 h, trypsinized, washed in ice-cold PBS, fixed by the addition of 70% ethanol and left for 2 h at −20 °C. Thereafter, the cells were washed twice in PBS, stained with 50 μg/mL of propidium iodide (Sigma, Merck KGaA, Darmstadt, Germany) in PBS, treated with 10 µg/mL of RNAse and analyzed by flow cytometry using FACScan device (BD, USA). A total of 2000 events were collected. The results were analyzed using FlowJo 10 software (BD, Franklin Lakes, NJ, USA).

## O=C(NCCc1cccnc1)Nc1ccc(-c2ccc3c(N4CCOCC4)nc(N4CCOCC4)nc3c2)cc1 [Compound 7c, 1-(4-(2,4-Dimorpholinoquinazolin-7-yl)phenyl)-3-(2-(pyridin-3-yl)ethyl)urea]
[1]
  IC50: 200 nM
[2]
  IC50: 6000 nM
[3]; 50 µL of 1 mM 7c s.c. around tumor, from 400–500 mm^3, three injections
  Effect on tumor growth, late treatment of large tumors (group 2): less evident but still significant; also recorded: tumor destruction
[3]; 50 µL of 1 mM 7c s.c. near tumor, once in 3 days, from 2–8 mm^3, post three injections, p < 0.05
  Effect on tumor growth, early treatment (group 1): significant
[4]
  Concentration triggering PARP-1 cleavage: 62 to 125 nM
[5]
  IC50: 3000 nM
[6]
  Antiproliferative activity in combination with metformin: up to 4 nM
[7]
  Concentration above which all cells died: higher than 10 μM
  Concentration below which no changes in the cell cycle were found: below 1 μM
